Experimental data taken from patent publication US12391686B2, “Compounds and uses thereof” (Foghorn Therapeutics Inc., priority 2019, dated 2025).
Where two headings read alike, the source gives them in different places.

Target: T1, Nanoluciferase-BRD9 fusion protein (3×FLAG-NLuc-BRD9) in SYO-1 cells (Homo sapiens, UniProt Q9H8M2)
T1 construct: expressed in transfected cells; host or cells: SYO-1
T1 sequence (Q9H8M2 1-597): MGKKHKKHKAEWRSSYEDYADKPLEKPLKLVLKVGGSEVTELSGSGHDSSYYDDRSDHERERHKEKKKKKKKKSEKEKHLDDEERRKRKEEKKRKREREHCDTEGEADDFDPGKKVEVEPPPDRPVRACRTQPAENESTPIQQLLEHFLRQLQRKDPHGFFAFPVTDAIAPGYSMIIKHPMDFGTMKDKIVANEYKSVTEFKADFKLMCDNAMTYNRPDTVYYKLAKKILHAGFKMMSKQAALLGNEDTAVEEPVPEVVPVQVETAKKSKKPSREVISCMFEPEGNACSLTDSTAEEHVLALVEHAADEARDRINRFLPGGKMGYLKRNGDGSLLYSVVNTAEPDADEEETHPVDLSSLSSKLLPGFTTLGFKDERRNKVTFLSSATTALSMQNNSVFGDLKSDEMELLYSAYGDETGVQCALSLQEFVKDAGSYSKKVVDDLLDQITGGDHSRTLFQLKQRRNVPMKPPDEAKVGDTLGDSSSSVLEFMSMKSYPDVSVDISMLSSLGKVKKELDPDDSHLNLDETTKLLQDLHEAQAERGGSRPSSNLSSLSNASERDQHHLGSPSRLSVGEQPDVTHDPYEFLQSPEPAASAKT
Assay: SYO1 BRD9 NanoLuc Degradation Assay
Format: cell-based
Details: SYO-1 cells expressing 3×FLAG-NLuc-BRD9, 6 hours incubation, 1 μM top dose, read-out: SYO1 BRD9-NanoLuc degradation IC50
Outline: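 NanoLuc signal, read by Nano-Glo luminescence after 6 h compound exposure, gives % inhibition against DMSO-treated cells (high control) and cells given 1 μM of a standard BRD9 degrader (low control). Test compounds ran as 10-point 3-fold series, top 1 μM final, in duplicate on SYO-1 cells stably expressing 3×FLAG-NLuc-BRD9.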

| SMILES | DC50 (Table 6C) | DC50 (Table 6B) |
| --- | --- | --- |
| COc1cc(-c2cn(C)c(=O)c3cnc(N4CC(F)(F)C4)cc23)cc(OC)c1CN1CCN(CCC2CCN(c3ccc4c(c3)CN(C3CCC(=O)NC3=O)C4=O)CC2)CC1 (centres unmarked) [Compound D248] | < 0.01 µM | – |
| COc1cc(-c2cn(C)c(=O)c3cnc(N(C)C)cc23)cc(OC)c1CN1CC(C#Cc2ccc3c(c2)C(=O)N(C2CCC(=O)NC2=O)C3)C1 (centres unmarked) [Compound D267] | < 0.01 µM | – |
| CN(C)c1cc2c(-c3ccc(N(C)C4CCN(c5ccc6c(c5)C(=O)N(C5CCC(=O)NC5=O)C6)CC4)cc3)cn(C)c(=O)c2cn1 (centres unmarked) [Compound D262] | < 0.01 µM | – |
| COc1cc(-c2cn(C)c(=O)c3cnc(N(C)C)cc23)cc(OC)c1CN1CC(S(=O)(=O)NCCOCCOCCNc2cccc3c2C(=O)N(C2CCC(=O)NC2=O)C3=O)C1 (centres unmarked) [Compound D37] | – | < 0.01 µM |
| COc1cc(-c2cn(C)c(=O)c3cnc(N(C)C)cc23)cc(OC)c1CN1CC(C(C)N2CCC3(CC2)CN(c2ccc4c(c2)C(=O)N(C2CCC(=O)NC2=O)C4=O)C3)C1 (centres unmarked) [Compound D110] | – | < 0.01 µM |
| COc1cc(-c2cn(C)c(=O)c3cnc(N(C)C)cc23)cc(OC)c1CN1CCN([C@H](C)COc2ccc3c(c2)C(=O)N(C2CCC(=O)NC2=O)C3=O)CC1 (some centres unmarked) [Compound D77] | – | < 0.01 µM |
| COc1cc(-c2cn(C)c(=O)c3cnc(N(C)C)cc23)cc(OC)c1CN1CC(C(=O)N2CC3(CCN(c4ccc5c(c4)C(=O)N(C4CCC(=O)NC4=O)C5=O)C3)C2)C1 (centres unmarked) [Compound D66] | – | < 0.01 µM |
| COc1cc2c(-c3cc(OC)c(CN4CCC(CN5CCC6(CC5)CN(c5ccc7c(c5)C(=O)N(C5CCC(=O)NC5=O)C7)C6)CC4)c(OC)c3)cn(C)c(=O)c2cn1 (centres unmarked) [Compound D289] | < 0.01 µM | – |
| [2H]C([2H])([2H])n1cc(-c2cc(OC)c(CN3CC(CN4CCC5(CC4)CN(c4ccc6c(c4)C(=O)N(C4CCC(=O)NC4=O)C6=O)C5)C3)c(OC)c2)c2cc(C3CC3)ncc2c1=O (centres unmarked) [Compound D306] | < 0.01 µM | – |
| COc1cc(-c2cn(C)c(=O)c3cnc(C4CC4)cc23)cc(OC)c1CN1CCC(CCN2CCN(c3ccc4c(c3)C(=O)N(C3CCC(=O)NC3=O)C4=O)CC2)CC1 (centres unmarked) [Compound D304] | < 0.01 µM | – |
| COc1cc(-c2cn(C)c(=O)c3cnc(N(C)C)cc23)cc(OC)c1CN1CCN(CC2CCN(c3ccc4c(c3)C(=O)N(C3CCC(=O)NC3=O)C4=O)CC2)CC1 (centres unmarked) [Compound D155] | – | < 0.01 µM |
| [2H]C([2H])([2H])n1cc(-c2cc(OC)c(CN3CCC(CN4CCC5(CC4)CC(Oc4ccc6c(c4)C(=O)N(C4CCC(=O)NC4=O)C6=O)C5)CC3)c(OC)c2)c2cc(C3CC3)ncc2c1=O (centres unmarked) [Compound D307] | < 0.01 µM | – |
| COc1cc(-c2cn(C)c(=O)c3cnc(C4CC4)cc23)cc(OC)c1CN1CCC2(CC1)CN(c1ccc3c(c1)C(=O)N(C1CCC(=O)NC1=O)C3=O)C2 (centres unmarked) [Compound D219] | < 0.01 µM | – |
| COc1cc(-c2cn(C)c(=O)c3cnc(N(C)C)cc23)cc(OC)c1CN1CCC(CCNC(=O)NCc2ccc3c(c2)C(=O)N(C2CCC(=O)NC2=O)C3=O)CC1 (centres unmarked) [Compound D74] | – | 0.01 to 0.1 µM |
| COc1cc(-c2cn(C)c(=O)c3cnc(N(C)C)cc23)cc(OC)c1CN1CC2CN(C(=O)CCOCCOc3ccc4c(c3)C(=O)N(C3CCC(=O)NC3=O)C4=O)CCC21 (centres unmarked) [Compound D33] | – | < 0.01 µM |
| COc1cc(-c2cn(C)c(=O)c3cnc(N(C)C)cc23)cc(OC)c1CN1CCN(c2ccc3c(c2)CN(C2CCC(=O)NC2=O)C3=O)CC1 (centres unmarked) [Compound D114] | – | < 0.01 µM |
| COc1cc(-c2cn(C)c(=O)c3cnc(N(C)C)cc23)c2c(c1)N(CCCCCCCCOc1cccc3c1C(=O)N(C1CCC(=O)NC1=O)C3=O)CC2 (centres unmarked) [Compound D47] | – | 0.01 to 0.1 µM |
| COc1cc(-c2cn(C)c(=O)c3cnc(N(C)C)cc23)cc(OC)c1CN1CCC(C#Cc2ccc3c(c2)C(=O)N(C2CCC(=O)NC2=O)C3=O)CC1 (centres unmarked) [Compound D273] | < 0.01 µM | – |
| COc1cc(-c2cn(C)c(=O)c3cnc(C4(C)CC4)cc23)cc(OC)c1CN1CCC(CCN2CCN(c3ccc4c(c3)CN(C3CCC(=O)NC3=O)C4=O)CC2)CC1 (centres unmarked) [Compound D238] | < 0.01 µM | – |
| COc1cc(-c2cn(C)c(=O)c3cnc(N(C)C)cc23)cc(OC)c1CN1CCC(c2ccc3c(c2)CN(C2CCC(=O)NC2=O)C3=O)CC1 (centres unmarked) [Compound D297] | < 0.01 µM | – |
| COc1cc(-c2cn(C)c(=O)c3cnc(N(C)C)cc23)cc(OC)c1CN1CCN(CC(C)(C)Oc2ccc3c(c2)C(=O)N(C2CCC(=O)NC2=O)C3=O)CC1 (centres unmarked) [Compound D96] | – | < 0.01 µM |
| COc1cc(-c2cn(C)c(=O)c3cnc(N(C)C)cc23)cc(OC)c1CN1CCN(c2ccc3c(c2)C(=O)N(C2CCC(=O)NC2=O)C3)CC1(C)C (centres unmarked) [Compound D255] | < 0.01 µM | – |

| SMILES | DC50 (Table 6C) | DC50 (Table 6B) |
| --- | --- | --- |
| COc1cc(-c2cn(C)c(=O)c3cnc(N(C)C)cc23)cc(OC)c1CN1CCC(CN2Cc3cc4c(cc3C2)C(=O)N(C2CCC(=O)NC2=O)C4=O)CC1 (centres unmarked) [Compound D61] | – | < 0.01 µM |
| COc1cc(-c2cn(C)c(=O)c3cnc(N(C)C)cc23)cc(OC)c1CN1CCC(CN2CCC3(CC2)CN(c2ccc4c(c2)C(=O)N(C2CCC(=O)NC2=O)C4)C3)C(F)(F)C1 (centres unmarked) [Compound D236] | < 0.01 µM | – |
| COc1cc(-c2cn(C)c(=O)c3cnc(N(C)C)cc23)cc(OC)c1CCN1CCC(CN2CCC3(CC2)CC(Oc2ccc4c(c2)C(=O)N(C2CCC(=O)NC2=O)C4)C3)CC1 (centres unmarked) [Compound D298] | < 0.01 µM | – |
| COCC1CN(CCC2CCN(c3ccc4c(c3)C(=O)N(C3CCC(=O)NC3=O)C4=O)CC2)CCN1Cc1c(OC)cc(-c2cn(C)c(=O)c3cnc(N4CCC4)cc23)cc1OC (centres unmarked) [Compound D215] | < 0.01 µM | – |
| COc1cc(-c2cn(C)c(=O)c3cnc(N(C)C)cc23)cc(OC)c1CN1CCC2(CC1)CC(N1CCN(c3ccc4c(c3)C(=O)N(C3CCC(=O)NC3=O)C4=O)CC1)C2 (centres unmarked) [Compound D56] | – | < 0.01 µM |
| C=CCCn1cc(-c2cc(OC)c(CN3CCN(CCC4CCN(c5ccc6c(c5)C(=O)N(C5CCC(=O)NC5=O)C6=O)CC4)CC3)c(OC)c2)c2cc(N(C)C)ncc2c1=O (centres unmarked) [Compound D135] | – | < 0.01 µM |
| COc1cc(-c2cn(C)c(=O)c3cnc(N(C)C)cc23)cc(OC)c1CN1CCC(N2CCN(c3ccc4c(c3)C(=O)N(C3CCC(=O)NC3=O)C4=O)CC2)CC1 (centres unmarked) [Compound D52] | – | < 0.01 µM |
| COc1cc(-c2cn(C)c(=O)c3cnc(N(C)C)cc23)cc(OC)c1CN1CC2(CC(N3CCN(C4CCC(=O)NC4=O)C(=O)C3)C2)C1 (centres unmarked) [Compound D249] | 0.1 to 1 µM | – |
| COc1cc(-c2cn(C)c(=O)c3cnc(N(C)C)cc23)cc(OC)c1CN1CCN(C[C@@H](C)Oc2ccc3c(c2)C(=O)N(C2CCC(=O)NC2=O)C3=O)CC1 (some centres unmarked) [Compound D82] | – | < 0.01 µM |
| COc1cc2c(-c3cc(OC)c(CN4CCN(c5ccc6c(c5)C(=O)N(C5CCC(=O)NC5=O)C6)CC4C)c(OC)c3)cn(C)c(=O)c2cn1 (centres unmarked) [Compound D293] | < 0.01 µM | – |
| COc1cc(-c2cn(C)c(=O)c3cnc(N(C)C)cc23)cc(OC)c1CN1CCN(C2(COc3cccc4c3C(=O)N(C3CCC(=O)NC3=O)C4=O)COC2)CC1 (centres unmarked) [Compound D100] | – | < 0.01 µM |
| COc1cc(-c2cn(C)c(=O)c3cnc(N(C)C)cc23)cc(OC)c1CN1CC2(CCC(N3Cc4cc5c(cc4C3)C(=O)N(C3CCC(=O)NC3=O)C5=O)CC2)C1 (centres unmarked) [Compound D64] | – | 0.1 to 1 µM |
| COc1cc(-c2cn(C)c(=O)c3cnc(N(C)C)cc23)cc(OC)c1CN1CC(N2CCN(c3ccc4c(c3)C(=O)N(C3CCC(=O)NC3=O)C4=O)CC2)C1 (centres unmarked) [Compound D69] | – | < 0.01 µM |
| COc1cc(-c2cn(C)c(=O)c3cnc(C4CC4)cc23)cc(OC)c1CN1CC(CN2CCC3(CC2)CN(c2ccc4c(c2)C(=O)N(C2CCC(=O)NC2=O)C4)C3)C1 (centres unmarked) [Compound D193] | < 0.01 µM | – |
| COc1cc2c(-c3cc(OC)c(CN4CCN(c5cccc(OC6CCC(=O)NC6=O)c5)CC4)c(OC)c3)cn(C)c(=O)c2cn1 (centres unmarked) [Compound D282] | 0.01 to 0.1 µM | – |
| COc1cc2c(-c3cc(OC)c(CN4CCC(c5ccc6c(c5)CN(C5CCC(=O)NC5=O)C6=O)CC4)c(OC)c3)cn(C)c(=O)c2cn1 (centres unmarked) [Compound D235] | < 0.01 µM | – |
| COc1cc(-c2cn(C)c(=O)c3cnc(N(C)C)cc23)cc(OC)c1CN1CCC(N2CCN(C3CCC(=O)NC3=O)C(=O)C2)CC1 (centres unmarked) [Compound D253] | ≥ 1 µM | – |
| COc1cc(-c2cn(C)c(=O)c3cnc(N(C)C)cc23)cc(OC)c1CN1CCN(C(C)COc2cccc3c2C(=O)N(C2CCC(=O)NC2=O)C3=O)CC1 (centres unmarked) [Compound D71] | – | < 0.01 µM |
| COc1cc(-c2cn(C)c(=O)c3cnc(C4(C)CC4)cc23)cc(OC)c1CN1CCC(CCN2CCN(c3ccc4c(c3)C(=O)N(C3CCC(=O)NC3=O)C4=O)CC2)CC1 (centres unmarked) [Compound D216] | < 0.01 µM | – |
| COc1cc(-c2cn(C)c(=O)c3cnc(C4CC4)cc23)cc(OC)c1CN1CCC2(CC1)CN(c1ccc3c(c1)C(=O)N(C1CCC(=O)NC1=O)C3)C2 (centres unmarked) [Compound D226] | < 0.01 µM | – |
| COc1cc(-c2cn(C)c(=O)c3cnc(N4CCC4)nc23)cc(OC)c1CN1CCC(CN2CCC3(CC2)CC(Oc2ccc4c(c2)CN(C2CCC(=O)NC2=O)C4=O)C3)CC1 (centres unmarked) [Compound D182] | – | < 0.01 µM |
| COc1cc(-c2cn(C)c(=O)c3cc(F)ccc23)cc(OC)c1CN1CCC(CN2CCC3(CC2)CC(Oc2ccc4c(c2)C(=O)N(C2CCC(=O)NC2=O)C4)C3)CC1 (centres unmarked) [Compound D287] | < 0.01 µM | – |
